For one data set, the system named is extracted spermiduct. As to the kind of experiment: Peripheral action, extracted spermiduct of rats. On the set-up: species or system rat (Wistar-strain). The note with it: up to 10^-4 g/ml, 32° C. The source says:
(§1) Since the dolichol is a water-insoluble oily liquid, it was used as a solution in sesame oil in the case of oral administration, and as a suspension in a nonionic surfactant (HCO-60, a trade name for a product of Nikko Chemical Co., Ltd.) in the case of intraperitoneal administration and in an in vitro test in the following experiment.
(§2) In the following experiment, ddY-strain male mice, Wistar-strain male rats (Shizuoka Laboratory Animal Center), Japanese white male rabbits (Carely) and Hartley-strain male guinea pigs (Clea Japan Inc.) were used. The animals were kept under conditions including a temperature of 23±1° C., a humidity of 55±10%, an illuminating time (7:00 am to 9.00 pm) and 15 ventilations per hour. The mice and rats were fed with solid feeds MF (a product of Oriental Yeast Co., Ltd.) and the guinea pigs and rabbits were fed with solid feeds GM-3 and RM-1 (Funabashi Farm Co.). They were allowed to take tap water freely. The animals were preliminarily kept for more than one week, and those which were healthy in general conditions were used in the experiments.
Wistar-strain male rats (180 to 200 g), 3 per group, were used. The extracted spermiduct samples were suspended in Locke-Ringer solution at 32° C. The contraction of the spermiduct was recorded by the same method as in the preceding section. […]

For a further data set, the system named is erythropoiesis. Put plainly: Erythropoiesis in vivo, 59Fe incorporation in phenylhydrazine-induced anemic mice (Run 6). The note with it: 250 mg/kg twice i.p. Also noted: species or system mouse (BDF1-strain). How it is done: Phenylhydrazine was administered to normal mice and hereditarily anemic mice to induce severe hemolytic anemia. Then, the rate of erythropoiesis during recovering of anemia was determined by measuring the rate of radioactive iron (^59 Fe) incorporation into newly formed red blood cells [P. M. Cotes, D. R. Bangham, Nature (London), 191, 1067 (1961)]. The testing method and results are described below.
Phenylhydrazine hydrochloride (60 mg/kg) dissolved in normal saline solution was subcutaneously injected into BDF1 -strain mice (6 weeks old, female) three times, namely on the 1st, 2nd and 4th day of the experiment to produce phenylhydrazine-induced anemic mice. Dolichol in a dose of 250 mg/kg (25 mg of dolichol was emulsified in 1 ml of a 1% aqueous solution of sodium carboxymethyl cellulose; 0.2 ml/20 g of the body weight) was intraperitoneally administered to the mice twice, namely on the 1st and 2nd day. […] On the 6th day, 0.5 ml of the whole blood was taken from each mouse, and the radioactivity of ^59 Fe incorporated into the whole blood during the period of 48 hours was measured by an auto-gamma-counter. […] By assuming that the amount of the whole blood of each mouse was 7% of the body weight, the ^59 Fe incorporation rates were calculated in accordance with the following equation and averaged. […]

The nature of the next data set: Water solubility. Format: physicochemical.
Another data set can be described thus: Diuretic action in rats. Format: in vivo, rat (Wistar-strain). The conditions noted are these: 150, 300 and 600 mg/kg; 6 hours after administration; vs control.
Description: as §1, §2
Wistar-strain male rats (80-90 g), 6 per group, were used. Immediately after administration of dolichol to the rats, normal saline solution was orally administered to the rats in a dose of 2.5 ml/100 g. […] Urine was taken 6 hours after administration of dolichol, and its amount was measured.

Another data set concerns extracted atrium. As to the kind of experiment: Peripheral action, extracted atrium of guinea pigs. The note with it: 10^-6, 10^-5 and 10^-4 g/ml; 30° C. On the set-up: species or system guinea pig (Hartley-strain).
Description: as §1, §2
Hartley-strain male guinea pigs (350-400 g), 3 per group, were used. […] The contraction of the atria was recorded on an ink-writing oscillograph (EMP-3004, Nippon Photoelectric Co.) through an FD pick-up (TB-611T, Nippon Photoelectric Co.). […]

The subject of the next data set is blood sugar. Put plainly: Blood sugar lowering action in rats (glucose-oxidase method). Format: in vivo, rat (Wistar-strain). The note with it: 150, 300 and 600 mg/kg; two hours after administration; vs control.
Description: as §1, §2
Wistar-strain male rats (180-210 g), 6 per group, were used. Two hours after administration of dolichol to the rats, the blood was taken from the abdominal main vein of the rats, and the blood sugar level was measured by the glucose-oxidase method.

In data set [1] the test system is maximal electroshock seizure. As to the kind of experiment: Anticonvulsive action (maximal electroshock seizure) in mice. Format: in vivo, mouse (ddY-strain). The note with it: 150, 300 and 600 mg/kg; one hour after administration; 40 mA, 0.4 msec, 50 Hz, 0.5 sec; vs control.
Description: as §1, §2
ddY-male mice (27-30 g), 6 per group, were used. One hour after administration of dolichol to the mice, an electric current was passed through the corneas of the mice under conditions of 40 mA, 0.4 msec, 50 Hz and 0.5 sec, and the time of duration of tonic extension (T. E.) was measured.
For orientation: The maximal electroshock test induces tonic seizures with an electrical stimulus.

A further data set has as its system mice. Put plainly: Acute toxicity of dolichol in mice. Format: in vivo, mouse (ddY-strain). The note with it: 5,000 mg/kg orally or 1,000 mg/kg intraperitoneally. How it is done: (1) Dolichol synthesized in Referential Example 1 below was used as a solution in sesame oil in the case of oral administration, or as a suspension in HCO-60 (a trade name for a nonionic surfactant made by Nikko Chemical Co., Ltd.) in the case of intraperitoneal administration.
ddY-strain mice (21-27 g), 6 per group, were used. Dolichol was administered to the mice in a dose of 5,000 mg/kg orally, or 1,000 mg/kg intraperitoneally on the 1st day of the test, and the mice were then observed for toxic symptoms and mortality for seven days. The body weights of the mice were measured before administration and on the 1st and 7th days. Control groups were each given sesame oil or HCO-60, and observed and weighed in the same way as in the case of the groups to which dolichol was administered. On the 7th day, all the mice were dissected and visually observed.

Turning to dolichol, the “Antagonistic action against noradrenalin” value in the data set with extracted spermiduct (extracted spermiduct) is reported as “nor any antagonistic action”. In the data set on extracted spermiduct, the “Direct action on extracted spermiduct” value is “no direct action”. For the same substance, in the data set on erythropoiesis (48 hours, control group 48.2), the “59Fe incorporation rate (%), dolichol administered group” value was determined as 50.2%. Further, the “Erythropoiesis enhancing ratio (%)” value in the data set on erythropoiesis (percent increase of 59Fe incorporation rate vs control) was “+4.2%”. Moreover, the Water solubility result in “Water solubility” is listed as “water-insoluble”. Also, the “Diuretic action (amount of urine)” value in “Diuretic action in rats” was “no significant difference was noted”. Besides, in the data set on extracted atrium, the Chronotropic action entry was “nor chronotropic action” and the Inotropic action result is recorded as “no inotropic”. In addition, the Blood sugar level result with blood sugar is recorded as “no significant difference was noted”. The “Time of duration of tonic extension (T. E.)” value in data set [1] is “no significant difference was noted”. Also, the “Changes in body weight” value in the data set on mice (1st and 7th days, vs control) was “no sigificant difference was noted”. In the data set on mice (7th day), the Abnormality in dissection entry is reported as “No abnormality was noted”. Also, the Mortality entry with mice (seven days) was “no case of death in all of the mice tested”.

(Values after patent publication US4812443A, “Methods for enhancing differentiation and proliferation of hematopoietic progenitor cells” (Kuraray Co., Ltd., priority 1984, dated 1989).)
